Tests used:
Test in all cases: Photoinactivation of 48-hour in vitro biofilms by adjuvant/antibiotic + antimicrobial blue light
E. coli biofilm = assay type: cell-based, Escherichia coli; details: 48 h biofilm; aBL 405 nm, 50-250 J/cm^2
Protocol: (§1) The bacterial suspension was grown in a shaking incubator overnight in BHI broth. Cells were collected by centrifugation at 4,000 rpm for 5 minutes and suspended in PBS at a density of 10^6 CFU/mL. Then, the biofilms were grown for 48 hours (unless otherwise specified) in 96-well microtiter plates as described previously [Ref. 27], with a renewal of the media every 24 hours. Following the 48-hour biofilm growth, fresh 200 μL of PBS with or without menadione in different concentrations were added to the wells and the biofilms were incubated in the dark at 25° C. for 1 hour: 0, 0.5, 1, and 2 μg/mL for MRSA USA300, AF0001, IQ0064; 0, 1, 10, 30 and 50 μg/mL for P. aeruginosa PA01; and 0, 100, and 150 μg/mL for E. coli ATCC 25922. After that, the control and the menadione-treated biofilms were maintained without irradiation (“menadione/dark”). Simultaneously, the aBL was delivered to the other biofilm groups testing different power densities (50, 30, 15, and 10 mW/cm^2) while keeping the same radiant exposure of 250 J/cm^2. After the light exposure, the biofilms were carefully washed two times with PBS and 200 μL of PBS was added to each well. Then, the bacterial biofilms in each well were harvested by scratching with a sterile pipette tip and three wells of each group were pooled together in a 1.5 mL microcentrifuge tube. The total volume obtained, 600 μL (3 wells), was sonicated using a Branson 2510 Water Bath Sonicator (Marshall Scientific, LLC) for 5 minutes and the CFU was determined by 10-fold serial dilutions in PBS on BHI agar plates. CFU was counted after overnight incubation at 37° C. Experiments were performed in triplicate.
(§2) A bacterial suspension was grown in a shaking incubator overnight in BHI broth. Cells were collected by centrifugation at 4,000 rpm for 5 minutes and suspended in PBS at a density of 10^6 CFU/mL. Then, the biofilms were grown for 48 hours in 96-well microtiter plates with a renewal of the media every 24 hours. Following the 48-hour biofilm growth, fresh 200 μL of PBS with the tetracyclines minocycline, doxycycline, and demeclocycline in different concentrations were added to the wells and the biofilms were incubated in the dark at 25° C. for 1 hour: 0, 0.25, 0.5, and 1 μg/mL for minocycline; 0, 0.5, 1, and 2 μg/mL for doxycycline; and 0, 0.5, 1, and 2 for demeclocycline. After that, the control and the tetracycline-treated biofilms were maintained without irradiation (“menadione/dark”). […] The total volume obtained, 600 μL (3 wells), was sonicated using a Branson 2510 Water Bath Sonicator (Marshall Scientific, LLC) for 5 minutes and the CFU/mL was determined by 10-fold serial dilutions in PBS on BHI agar plates. CFU was counted after overnight incubation at 37° C.

MRSA biofilm [1] = assay type: cell-based, methicillin-resistant Staphylococcus aureus; details: 48 h biofilm; aBL 405 nm, 50-250 J/cm^2
Protocol: as §1
A bacterial suspension was grown in a shaking incubator overnight in BHI broth. Cells were collected by centrifugation at 4,000 rpm for 5 minutes and suspended in PBS at a density of 10^6 CFU/mL. Then, the biofilms were grown for 48 hours in 96-well microtiter plates with a renewal of the media every 24 hours. Following the 48-hour biofilm growth, fresh 200 μL of PBS with the tetracyclines minocycline, doxycycline, and demeclocycline in different concentrations were added to the wells and the biofilms were incubated in the dark at 25° C. for 1 hour: 0, 0.25, 0.5, and 1 μg/mL for minocycline; 0, 0.5, 1, and 2 μg/mL for doxycycline; and 0, 0.5, 1, and 2 for demeclocycline. After that, the control and the tetracycline-treated biofilms were maintained without irradiation (“menadione/dark”). Simultaneously, the aBL (405 nm) was delivered to the other biofilm groups testing different power densities (50, 30 mW/cm^2) while keeping the radiant exposures of 50-250 J/cm^2. After the light exposure, the biofilms were carefully washed two times with PBS and 200 μL of PBS was added to each well. Then, the bacterial biofilms in each well were harvested by scratching with a sterile pipette tip and three wells of each group were pooled together in a 1.5 mL microcentrifuge tube. The total volume obtained, 600 μL (3 wells), was sonicated using a Branson 2510 Water Bath Sonicator (Marshall Scientific, LLC) for 5 minutes and the CFU/mL was determined by 10-fold serial dilutions in PBS on BHI agar plates. CFU was counted after overnight incubation at 37° C.

P. aeruginosa biofilm = assay type: cell-based, Pseudomonas aeruginosa; details: 48 h biofilm; aBL 405 nm, 50-250 J/cm^2
Protocol: The bacterial suspension was grown in a shaking incubator overnight in BHI broth. Cells were collected by centrifugation at 4,000 rpm for 5 minutes and suspended in PBS at a density of 10^6 CFU/mL. Then, the biofilms were grown for 48 hours (unless otherwise specified) in 96-well microtiter plates as described previously [Ref. 27], with a renewal of the media every 24 hours. Following the 48-hour biofilm growth, fresh 200 μL of PBS with or without menadione in different concentrations were added to the wells and the biofilms were incubated in the dark at 25° C. for 1 hour: 0, 0.5, 1, and 2 μg/mL for MRSA USA300, AF0001, IQ0064; […]; and 0, 100, and 150 μg/mL for E. coli ATCC 25922. After that, the control and the menadione-treated biofilms were maintained without irradiation (“menadione/dark”). Simultaneously, the aBL was delivered to the other biofilm groups testing different power densities (50, 30, 15, and 10 mW/cm^2) while keeping the same radiant exposure of 250 J/cm^2. After the light exposure, the biofilms were carefully washed two times with PBS and 200 μL of PBS was added to each well. Then, the bacterial biofilms in each well were harvested by scratching with a sterile pipette tip and three wells of each group were pooled together in a 1.5 mL microcentrifuge tube. The total volume obtained, 600 μL (3 wells), was sonicated using a Branson 2510 Water Bath Sonicator (Marshall Scientific, LLC) for 5 minutes and the CFU was determined by 10-fold serial dilutions in PBS on BHI agar plates. CFU was counted after overnight incubation at 37° C. Experiments were performed in triplicate.
as §2

MRSA biofilm [2] = assay type: cell-based, methicillin-resistant Staphylococcus aureus; details: 48 h biofilm

SMILES | antimicrobial effect of aBL combined with tetracycline (E. coli biofilm) | antimicrobial effect of aBL combined with tetracycline (MRSA biofilm [1]) | antimicrobial effect of aBL combined with tetracycline (P. aeruginosa biofilm) | killing in biofilm by vancomycin combined with aBL (MRSA biofilm [2]; vancomycin 500 μg/mL + aBL 50 mW/cm^2, 250 J/cm^2) [log10 CFU/mL] | effect on biofilms of vancomycin combined with aBL (MRSA biofilm [2]; vancomycin 1 mg/mL) | improvement of aBL antimicrobial effect by vancomycin (MRSA biofilm [2]; vancomycin 5, 15 and 50 μg/mL + aBL 250 J/cm^2)
CN(C)[C@@H]1C(O)=C(C(N)=O)C(=O)[C@@]2(O)C(O)=C3C(=O)c4c(O)ccc(Cl)c4[C@@H](O)[C@H]3C[C@@H]12 [demeclocycline] | enhancement in antimicrobial effects | enhancement in antimicrobial effects | enhancement in antimicrobial effects | – | – | –
CN[C@H](CC(C)C)C(=O)N[C@H]1C(=O)N[C@@H](CC(N)=O)C(=O)N[C@H]2C(=O)N[C@H]3C(=O)N[C@H](C(=O)N[C@H](C(=O)O)c4cc(O)cc(O)c4-c4cc3ccc4O)[C@H](O)c3ccc(c(Cl)c3)Oc3cc2cc(c3O[C@@H]2O[C@H](CO)[C@@H](O)[C@H](O)[C@H]2O[C@H]2C[C@](C)(N)[C@H](O)[C@H](C)O2)Oc2ccc(cc2Cl)[C@H]1O [vancomycin] | – | – | – | 2.65 | only minimal effects | did not show any improvement

Source: patent US20240416143A1, “PHOTONIC ANTIMICROBIAL WOUND SURFACE DRESSING” (The General Hospital Corporation, priority 2021, published 2024)
